Measurements published in PubChem BioAssay (NCI).
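Assay format: 96-well plates, 48-hour exposure. Abbreviation: GI50, concentration required for 50% inhibition of growth. TGI: concentration producing complete growth inhibition.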

Key:
Experiment in all cases: growth of human tumour cells (NCI), 48 h
[1] = system: 786-0 renal
[2] = system: A498 renal
[3] = system: A549 NSCLC
[4] = system: ACHN renal
[5] = system: BT-549 breast
[6] = system: CAKI-1 renal
[7] = system: CCRF-CEM leukemia
[8] = system: COLO 205 colon
[9] = system: DU-145 prostate
[10] = system: EKVX NSCLC
[11] = system: HCC-2998 colon
[12] = system: HCT-116 colon
[13] = system: HCT-15 colon
[14] = system: HL-60(TB) leukemia
[15] = system: HOP-62 NSCLC
[16] = system: HOP-92 NSCLC
[17] = system: HS 578T breast
[18] = system: HT29 colon
[19] = system: IGROV1 ovarian
[20] = system: K-562 leukemia
[21] = system: KM12 colon
[22] = system: LOX IMVI melanoma
[23] = system: M14 melanoma
[24] = system: MALME-3M melanoma
[25] = system: MCF7 breast
[26] = system: MDA-MB-435
[27] = system: MDA-MB-468 breast
[28] = system: MOLT-4 leukemia
[29] = system: NCI-H226 lung
[30] = system: NCI-H23 lung
[31] = system: NCI-H460 lung
[32] = system: NCI-H522 lung
[33] = system: NCI/ADR-RES ovarian
[34] = system: OVCAR-3 ovarian
[35] = system: OVCAR-4 ovarian
[36] = system: OVCAR-5 ovarian
[37] = system: OVCAR-8 ovarian
[38] = system: PC-3 prostate
[39] = system: RPMI-8226 leukemia
[40] = system: RXF 393 renal
[41] = system: SF-268 CNS
[42] = system: SF-295 CNS
[43] = system: SF-539 CNS
[44] = system: SK-MEL-28 melanoma
[45] = system: SK-MEL-5 melanoma
[46] = system: SK-OV-3 ovarian
[47] = system: SN12C renal
[48] = system: SNB-19 CNS
[49] = system: SR leukemia
[50] = system: SW-620 colon
[51] = system: T-47D breast
[52] = system: TK-10 renal
[53] = system: U251 CNS
[54] = system: UACC-257 melanoma
[55] = system: UACC-62 melanoma
[56] = system: MDA-MB-231 breast
[57] = system: SK-MEL-2 melanoma
[58] = system: SNB-75 CNS
[59] = system: UO-31 renal

## c1n[nH]cc1-c1nc2ccc3[nH]ncc3c2c2c1CC1(CCOCC1)CC2
[1]
  GI50: 14.9 µM
  TGI: 43.1 µM
[2]
  GI50: 6.66 µM
  TGI: 22.4 µM
[3]
  GI50: 22.8 µM
  TGI: > 100 µM
[4]
  GI50: 7.72 µM
  TGI: > 100 µM
[5]
  GI50: 5.05 µM
  TGI: 18.9 µM
[6]
  GI50: 17.3 µM
  TGI: 38.5 µM
[7]
  GI50: 22.1 µM
  TGI: 80.9 µM
[8]
  GI50: 5.62 µM
  TGI: 22.2 µM
[9]
  GI50: 17.9 µM
  TGI: > 100 µM
[10]
  GI50: 19.2 µM
  TGI: 54.4 µM
[11]
  GI50: 12.1 µM
  TGI: 32 µM
[12]
  GI50: 4.62 µM
  TGI: > 100 µM
[13]
  GI50: 19.8 µM
  TGI: > 100 µM
[14]
  GI50: 8.38 µM
  TGI: 28.5 µM
[15]
  GI50: 15.4 µM
  TGI: 43.3 µM
[16]
  GI50: 13.4 µM
  TGI: 64.1 µM
[17]
  GI50: 7.74 µM
  TGI: 37.5 µM
[18]
  GI50: 12.5 µM
  TGI: > 100 µM
[19]
  GI50: 19.8 µM
  TGI: 69.6 µM
[20]
  GI50: 16.9 µM
  TGI: > 100 µM
[21]
  GI50: 19.2 µM
  TGI: 47.8 µM
[22]
  GI50: 8.51 µM
  TGI: 21.5 µM
[23]
  GI50: 6.24 µM
  TGI: 20.9 µM
[24]
  GI50: 14.1 µM
  TGI: 27.9 µM
[25]
  GI50: 13 µM
  TGI: 40.9 µM
[26]
  GI50: 11.6 µM
  TGI: 25.4 µM
[27]
  GI50: 10.7 µM
  TGI: 23.2 µM
[28]
  GI50: 13.4 µM
  TGI: 42.7 µM
[29]
  GI50: 13.9 µM
  TGI: 39.2 µM
[30]
  GI50: 13.8 µM
  TGI: 28.8 µM
[31]
  GI50: 10.1 µM
  TGI: 26.4 µM
[32]
  GI50: 4.84 µM
  TGI: 21.2 µM
[33]
  GI50: 58.3 µM
  TGI: > 100 µM
[34]
  GI50: 16.8 µM
  TGI: 65.3 µM
[35]
  GI50: 23.4 µM
  TGI: 89.2 µM
[36]
  GI50: 27.7 µM
  TGI: 92.3 µM
[37]
  GI50: 13.3 µM
  TGI: 32.6 µM
[38]
  GI50: 16.7 µM
  TGI: > 100 µM
[39]
  GI50: 11.1 µM
  TGI: 42.7 µM
[40]
  GI50: 3.55 µM
  TGI: 16.1 µM
[41]
  GI50: 16.6 µM
  TGI: 41.2 µM
[42]
  GI50: 24.9 µM
  TGI: 71.1 µM
[43]
  GI50: 13.5 µM
  TGI: 27.3 µM
[44]
  GI50: 12.1 µM
  TGI: 25.6 µM
[45]
  GI50: 14.8 µM
  TGI: 28.7 µM
[46]
  GI50: 4.09 µM
  TGI: 60.2 µM
[47]
  GI50: 13.3 µM
  TGI: 44.3 µM
[48]
  GI50: 19.3 µM
  TGI: 71.2 µM
[49]
  GI50: 3.33 µM
  TGI: 15.2 µM
[50]
  GI50: 5.05 µM
  TGI: > 100 µM
[51]
  GI50: 13 µM
  TGI: 55.8 µM
[52]
  GI50: 8.2 µM
  TGI: > 100 µM
[53]
  GI50: 11.4 µM
  TGI: > 100 µM
[54]
  GI50: 14.7 µM
  TGI: 36.5 µM
[55]
  GI50: 4.37 µM
  TGI: 15.8 µM

## C=CC(=O)Nc1ccc(C(=O)/C=C/c2ccc(N(C)C)cc2)c(O)c1
[1]
  GI50: 2.18 µM
  TGI: 7.94 µM
[2]
  GI50: 10.5 µM
  TGI: 36.8 µM
[3]
  GI50: 2.57 µM
  TGI: 16.1 µM
[4]
  GI50: 1.74 µM
  TGI: 3.79 µM
[5]
  GI50: 1.39 µM
  TGI: 5.17 µM
[6]
  GI50: 2.85 µM
  TGI: 10.3 µM
[7]
  GI50: 2.56 µM
  TGI: > 100 µM
[8]
  GI50: 3.49 µM
  TGI: 11.9 µM
[9]
  GI50: 2.93 µM
  TGI: 12.6 µM
[10]
  GI50: 5.76 µM
  TGI: 25.8 µM
[11]
  GI50: 2.41 µM
  TGI: 8.77 µM
[12]
  GI50: 1.49 µM
  TGI: 2.9 µM
[13]
  GI50: 1.58 µM
  TGI: 3.75 µM
[14]
  GI50: 2.54 µM
  TGI: 8.45 µM
[15]
  GI50: 3.15 µM
  TGI: 13.3 µM
[16]
  GI50: 1.78 µM
  TGI: 17 µM
[17]
  GI50: 3.26 µM
  TGI: > 100 µM
[18]
  GI50: 2.37 µM
  TGI: 7.08 µM
[19]
  GI50: 3.51 µM
  TGI: 15.1 µM
[20]
  GI50: 3.07 µM
  TGI: > 100 µM
[21]
  GI50: 3.19 µM
  TGI: 12.5 µM
[22]
  GI50: 1.46 µM
  TGI: 3.28 µM
[23]
  GI50: 1.97 µM
  TGI: 6.62 µM
[24]
  GI50: 2.19 µM
  TGI: 10.6 µM
[25]
  GI50: 1.88 µM
  TGI: 17 µM
[56]
  GI50: 2.41 µM
  TGI: 7.49 µM
[26]
  GI50: 2.92 µM
  TGI: 14 µM
[27]
  GI50: 1.61 µM
  TGI: 6.17 µM
[28]
  GI50: 2.8 µM
  TGI: > 100 µM
[29]
  GI50: 2.46 µM
  TGI: 11.3 µM
[30]
  GI50: 3.26 µM
  TGI: 14.1 µM
[31]
  GI50: 2.75 µM
  TGI: 10.9 µM
[32]
  GI50: 1.5 µM
  TGI: 3.11 µM
[33]
  GI50: 2.2 µM
  TGI: 6.83 µM
[34]
  GI50: 2.79 µM
  TGI: 13.2 µM
[35]
  GI50: 4.08 µM
  TGI: 43.6 µM
[36]
  GI50: 2.55 µM
  TGI: 10.7 µM
[37]
  GI50: 1.68 µM
  TGI: 4.28 µM
[38]
  GI50: 4.57 µM
  TGI: 60.6 µM
[39]
  GI50: 2.91 µM
  TGI: 12 µM
[40]
  GI50: 1.43 µM
  TGI: 3.5 µM
[41]
  GI50: 4 µM
  TGI: 22.9 µM
[42]
  GI50: 5.69 µM
  TGI: 37.1 µM
[43]
  GI50: 1.71 µM
  TGI: 3.78 µM
[57]
  GI50: 2.94 µM
  TGI: 11.5 µM
[44]
  GI50: 2.02 µM
  TGI: 6.44 µM
[45]
  GI50: 3.08 µM
  TGI: 12.9 µM
[46]
  GI50: 9.3 µM
  TGI: 26.7 µM
[47]
  GI50: 2.03 µM
  TGI: 8.27 µM
[48]
  GI50: 3.72 µM
  TGI: 16.1 µM
[58]
  GI50: 3.27 µM
  TGI: 14.8 µM
[49]
  GI50: 1.1 µM
  TGI: > 100 µM
[50]
  GI50: 1.67 µM
  TGI: 3.89 µM
[51]
  GI50: 2.33 µM
  TGI: 12.6 µM
[52]
  GI50: 3.16 µM
  TGI: 11.8 µM
[53]
  GI50: 2.73 µM
  TGI: 11.9 µM
[54]
  GI50: 3.5 µM
  TGI: 18.6 µM
[55]
  GI50: 1.76 µM
  TGI: 6.54 µM
[59]
  GI50: 1.31 µM
  TGI: 14.3 µM
